Laboratory results: US20080119515A1, “Heterocyclic Kinase Inhibitors: Methods of Use and Synthesis” (priority 2003, published 2008)

Molecular target: T1, ZAP-70 (Homo sapiens, UniProt P43403)
T1 sequence (P43403 1-619): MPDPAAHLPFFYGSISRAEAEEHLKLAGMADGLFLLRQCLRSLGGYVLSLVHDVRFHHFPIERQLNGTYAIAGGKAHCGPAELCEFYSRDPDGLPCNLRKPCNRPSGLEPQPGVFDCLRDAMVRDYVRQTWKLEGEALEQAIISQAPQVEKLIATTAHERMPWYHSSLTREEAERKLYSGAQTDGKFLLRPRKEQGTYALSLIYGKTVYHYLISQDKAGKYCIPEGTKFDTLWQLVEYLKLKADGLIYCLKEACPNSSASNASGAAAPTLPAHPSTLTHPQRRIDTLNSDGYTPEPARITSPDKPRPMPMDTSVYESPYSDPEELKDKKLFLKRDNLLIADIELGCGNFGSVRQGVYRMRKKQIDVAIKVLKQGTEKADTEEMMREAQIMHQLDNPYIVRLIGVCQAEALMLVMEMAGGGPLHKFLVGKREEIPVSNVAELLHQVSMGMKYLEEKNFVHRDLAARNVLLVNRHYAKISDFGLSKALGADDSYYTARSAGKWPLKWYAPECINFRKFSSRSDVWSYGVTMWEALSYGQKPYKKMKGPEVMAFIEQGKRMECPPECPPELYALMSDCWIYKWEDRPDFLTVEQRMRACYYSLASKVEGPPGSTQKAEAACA
Experiment: DELFIA assay (ZAP-70 kinase, phosphorylation of biotinylated poly(glu,tyr))
Type: biochemical
Conditions: ZAP-70 DELFIA, class symbols; read-out: Activity (IC50 in vitro)
Procedure, shortened: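 3.1 nM ZAP-70 pre-incubated 10 min at room temperature with compound ([…]) and 62.5 nM biotinylated poly(glu,tyr) in 62.5 mM Mops pH 7.0, 12.5 mM MgCl2, 12.5% glycerol, 6.25% DMSO (pre-incubation concentrations); ATP added from 5 mM stock, 30 min reaction, EDTA stop. Phosphorylation read by DELFIA europium anti-phosphotyrosine fluorescence (340/615).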

Row | Compound | IC50 [µM]
1 | CNC[C@@H]1CCCN1C(=O)c1cc(NCc2ccc(C(F)(F)F)cc2)nc2ccc(-c3ccc4c(c3)OCO4)cc12 [Compound 357] | 1 to 10
2 | O=C(c1cc(NCc2ccc(C(F)(F)F)cc2)nc2ccc(-c3ccc4c(c3)OCO4)cc12)N1CCC[C@H]1CNC1CCCC1 [Compound 358] | < 1
3 | O=C(c1cc(NCc2ccc(C(F)(F)F)cc2)nc2ccc(-c3ccc4c(c3)OCO4)cc12)N1CCC[C@H]1CNC1CCC1 [Compound 359] | < 1
4 | O=C(c1cc(NCc2ccc(C(F)(F)F)cc2)nc2ccc(-c3ccc4c(c3)OCO4)cc12)N1CCC[C@H]1CNC1CCCCC1 [Compound 360] | 1 to 10
5 | O=C(c1cc(NCc2ccc(C(F)(F)F)cc2)nc2ccc(-c3ccc4c(c3)OCO4)cc12)N1CCC[C@H]1CNC1CC1 [Compound 361] | 1 to 10
6 | O=C(c1cc(NCc2ccc(C(F)(F)F)cc2)nc2ccc(-c3ccc4c(c3)OCO4)cc12)N1CCC[C@H]1CO [Compound 362] | > 10
7 | CN(Cc1ccccc1)c1cc(C(=O)N2CCC[C@H]2CN2CCCC2)cc(N(C)c2ccccc2)n1 [Compound 363] | 1 to 10
8 | CN(CCc1ccccc1)c1cc(C(=O)N2CCC[C@H]2CN2CCCC2)cc(N(C)Cc2ccccc2)n1 [Compound 364] | 1 to 10
9 | CN(CCc1ccccc1)c1cc(C(=O)N2CCC[C@H]2CN2CCCC2)cc(/C=C/c2ccccc2)n1 [Compound 365] | 1 to 10
10 | CN(CCc1ccccc1)c1cc(C(=O)N2CCC[C@H]2CN2CCCC2)cc(/C=C/c2ccc(C(F)(F)F)cc2)n1 [Compound 366] | 1 to 10
11 | CN(CCc1ccccc1)c1cc(C(=O)N2CCC[C@H]2CN2CCCC2)cc(-c2ccccc2)n1 [Compound 367] | > 10
12 | CN(CCc1ccccc1)c1cc(C(=O)N2CCC[C@H]2CN2CCCC2)cc(-c2ccc3c(c2)OCO3)n1 [Compound 368] | > 10
13 | CN(CCc1ccccc1)c1cc(C(=O)N2CCC[C@H]2CN2CCCC2)cc(Cc2ccccc2)n1 [Compound 369] | > 10
14 | CN(CCc1ccccc1)c1cc(C(=O)N2CCC[C@H]2CN2CCCC2)cc(N2CCOCC2)n1 [Compound 370] | > 10
15 | CN(CCc1ccccc1)c1cc(C(=O)N2CCC[C@H]2CN2CCCC2)cc(N(C)c2ccccc2)n1 [Compound 371] | > 10
16 | CN(CCc1ccccc1)c1cc(C(=O)N2CCC[C@H]2CN2CCCC2)cc(N(C)CCc2ccccc2)n1 [Compound 372] | 1 to 10
17 | N=C(NC1CC1)[C@@H]1CCCN1C(=O)c1cc(NCc2ccc(C(F)(F)F)cc2)nc2ccc(-c3ccc4c(c3)OCO4)cc12 [Compound 377] | > 10
18 | N=C(NC1CCC1)[C@@H]1CCCN1C(=O)c1cc(NCc2ccc(C(F)(F)F)cc2)nc2ccc(-c3ccc4c(c3)OCO4)cc12 [Compound 378] | > 10
19 | N=C(NC1CCCC1)[C@@H]1CCCN1C(=O)c1cc(NCc2ccc(C(F)(F)F)cc2)nc2ccc(-c3ccc4c(c3)OCO4)cc12 [Compound 379] | > 10
20 | N=C(NC1CCCCC1)[C@@H]1CCCN1C(=O)c1cc(NCc2ccc(C(F)(F)F)cc2)nc2ccc(-c3ccc4c(c3)OCO4)cc12 [Compound 380] | > 10
21 | N=C([C@@H]1CCCN1C(=O)c1cc(NCc2ccc(C(F)(F)F)cc2)nc2ccc(-c3ccc4c(c3)OCO4)cc12)N1CCCC1 [Compound 381] | > 10
22 | N#C[C@@H]1CCCN1C(=O)c1cc(NCc2ccc(C(F)(F)F)cc2)nc2ccc(-c3ccc4c(c3)OCO4)cc12 [Compound 382] | > 10
23 | O=C(c1cc(NCc2ccc(C(F)(F)F)cc2)nc2c(-c3ccc4c(c3)OCO4)cc(Cl)cc12)N1CCC[C@H]1CN1CCCC1 [Compound 383] | > 10
24 | N#Cc1ccc(-c2ccc3nc(/C=C/c4ccc(Cl)cc4)cc(C(=O)N4CCC[C@H]4CN4CCCC4)c3c2)cc1 [Compound 387] | 1 to 10
25 | N#Cc1ccc(-c2ccc3nc(CCc4ccc(C(F)(F)F)cc4)cc(C(=O)N4CCC[C@H]4CN4CCCC4)c3c2)cc1 [Compound 389] | < 1
26 | N#Cc1ccc(-c2ccc3nc(CCc4ccccc4)cc(C(=O)N4CCC[C@H]4CN4CCCC4)c3c2)cc1 [Compound 391] | > 10
27 | C[Si](C)(C)C#Cc1cc(C(=O)N2CCC[C@H]2CN2CCCC2)c2cc(-c3ccc4c(c3)OCO4)ccc2n1 [Compound 402] | < 1
28 | O=C(c1cc(NCc2ccc(C(F)(F)F)cc2)nc2ccc(-c3ccc4c(c3)OCO4)cc12)N1CC=C[C@H]1CN1CCCC1 [Compound 411] | < 1
29 | CN(C)c1ccc(Nc2cc(/C=C/c3ccc(F)cc3)nc3ccc(-c4ccc5c(c4)OCO5)cc23)cc1 [Compound 412] | > 10
30 | Fc1ccc(/C=C/c2cc(Nc3ccc(N4CCNCC4)cc3)c3cc(-c4ccc5c(c4)OCO5)ccc3n2)cc1 [Compound 413] | 1 to 10

Other lines, results leading:

Row | IC50 [µM] | Compound
31 | 1 to 10 | FC(F)(F)c1ccc(CNc2cc(C(=S)N3CCC[C@H]3CN3CCCC3)c3cc(-c4ccc5c(c4)OCO5)ccc3n2)cc1 [Compound 373]
32 | 1 to 10 | O=C(c1cc(NCc2ccc(Cl)cc2)nc2ccc(-c3ccc4c(c3)OCO4)cc12)N1CC[C@H]1CN1CCCC1 [Compound 374]
33 | 1 to 10 | O=C(c1cc(NCc2ccc(C(F)(F)F)cc2)nc2ccc(-c3ccc4c(c3)OCO4)cc12)N1CCCC[C@H]1CN1CCCC1 [Compound 375]
34 | 1 to 10 | O=C(c1cc(NCc2ccc(Cl)cc2)nc2ccc(-c3ccc4c(c3)OCO4)cc12)N1CCCC[C@H]1CN1CCCC1 [Compound 376]
35 | < 1 | O=C(c1cc(NCc2ccc(C(F)(F)F)cc2)nc2c(Cl)cc(-c3ccc4c(c3)OCO4)cc12)N1CCC[C@H]1CN1CCCC1 [Compound 384]
36 | 1 to 10 | O=C(Nc1cc(C(=O)N2CCC[C@H]2CN2CCCC2)c2cc(-c3ccc4c(c3)OCO4)ccc2n1)c1ccccc1 [Compound 385]
37 | 1 to 10 | O=C(Nc1cc(C(=O)N2CCC[C@H]2CN2CCCC2)c2cc(-c3ccc4c(c3)OCO4)ccc2n1)c1ccc(Cl)cc1 [Compound 386]
38 | 1 to 10 | N#Cc1ccc(-c2ccc3nc(CCc4ccc(F)cc4)cc(C(=O)N4CCC[C@H]4CN4CCCC4)c3c2)cc1 [Compound 388]
39 | > 10 | N#Cc1ccc(-c2ccc3nc(CCc4ccc(Cl)cc4)cc(C(=O)N4CCC[C@H]4CN4CCCC4)c3c2)cc1 [Compound 390]
40 | < 1 | Cc1ccc(CCc2cc(C(=O)N3CCC[C@H]3CN3CCCC3)c3cc(-c4ccc5c(c4)OCO5)ccc3n2)cc1 [Compound 392]
41 | < 1 | O=C(c1cc(CCc2ccc(-c3ccccc3)cc2)nc2ccc(-c3ccc4c(c3)OCO4)cc12)N1CCC[C@H]1CN1CCCC1 [Compound 393]
42 | > 10 | Nc1ccc(CCc2cc(C(=O)N3CCC[C@H]3CN3CCCC3)c3cc(-c4ccc5c(c4)OCO5)ccc3n2)cc1 [Compound 394]
43 | < 1 | O=C(c1cc(CCc2ccccc2F)nc2ccc(-c3ccc4c(c3)OCO4)cc12)N1CCC[C@H]1CN1CCCC1 [Compound 395]
44 | < 1 | O=C(c1cc(CCc2cccc(F)c2)nc2ccc(-c3ccc4c(c3)OCO4)cc12)N1CCC[C@H]1CN1CCCC1 [Compound 396]
45 | < 1 | O=C(c1cc(CCc2ccc(F)cc2F)nc2ccc(-c3ccc4c(c3)OCO4)cc12)N1CCC[C@H]1CN1CCCC1 [Compound 397]
46 | < 1 | CCCCCc1ccc(CCc2cc(C(=O)N3CCC[C@H]3CN3CCCC3)c3cc(-c4ccc5c(c4)OCO5)ccc3n2)cc1 [Compound 398]
47 | > 10 | O=C(c1ccnc2ccc(-c3ccc4c(c3)OCO4)cc12)N1CCC[C@H]1CN1CCCC1 [Compound 399]
48 | < 1 | O=C(c1cc(Cc2ccc(Cl)cc2)nc2ccc(-c3ccc4c(c3)OCO4)cc12)N1CCC[C@H]1CN1CCCC1 [Compound 400]
49 | < 1 | O=C(c1cc(Cc2ccc(Cl)cc2Cl)nc2ccc(-c3ccc4c(c3)OCO4)cc12)N1CCC[C@H]1CN1CCCC1 [Compound 401]
50 | < 1 | COc1ccc(C#Cc2cc(C(=O)N3CCC[C@H]3CN3CCCC3)c3cc(-c4ccc5c(c4)OCO5)ccc3n2)cc1 [Compound 403]
51 | < 1 | O=C(c1cc(C#Cc2cccc(C(F)(F)F)c2)nc2ccc(-c3ccc4c(c3)OCO4)cc12)N1CCC[C@H]1CN1CCCC1 [Compound 404]
52 | < 1 | CCN(Cc1ccc(C)cc1)c1cc(C(=O)N2CCC[C@H]2CN2CCCC2)c2cc(-c3ccc4c(c3)OCO4)ccc2n1 [Compound 405]
53 | < 1 | O=C(c1cc(CCCc2ccc(Cl)cc2)nc2ccc(-c3ccc4c(c3)OCO4)cc12)N1CCC[C@H]1CN1CCCC1 [Compound 406]
54 | < 1 | O=C(c1cc(CCCCc2ccc(Cl)cc2)nc2ccc(-c3ccc4c(c3)OCO4)cc12)N1CCC[C@H]1CN1CCCC1 [Compound 407]
55 | > 10 | C[Si](C)(C)CCc1cc(C(=O)N2CCC[C@H]2CN2CCCC2)c2cc(-c3ccc4c(c3)OCO4)ccc2n1 [Compound 408]
56 | > 10 | COc1ccc(CCc2cc(C(=O)N3CCC[C@H]3CN3CCCC3)c3cc(-c4ccc5c(c4)OCO5)ccc3n2)cc1 [Compound 409]
57 | < 1 | O=C(c1cc(CCc2cccc(C(F)(F)F)c2)nc2ccc(-c3ccc4c(c3)OCO4)cc12)N1CCC[C@H]1CN1CCCC1 [Compound 410]
